Target: T1, cMET receptor tyrosine kinase (GST-cMET (969-1390)) (Homo sapiens, UniProt P08581)
T1 construct: made in house
Test: EPK cMET profiling assay (LanthaScreen TR-FRET antibody based kinase phosphorylation assay)
Assay type: biochemical
Settings: purified recombinant GST-cMET (969-1390), 2 μM ATP, 50 nM Fluorescein-PolyEAY, 60 minutes at room temperature; read-out: c-Met IC50
Outline: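 Compounds tested at eight final concentrations from 10 down to 0.003 µM against affinity-purified GST-cMET (969-1390, 0.3 nM) with 2 µM ATP and 50 nM fluorescein-PolyEAY in Tris buffer with MgCl2 and MnCl2, 1 h at room temperature. After EDTA stop, phosphoproduct detected by LanthaScreen TR-FRET with Tb-PY20 antibody, end-point measurement.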

T1 sequence (P08581 969-1390): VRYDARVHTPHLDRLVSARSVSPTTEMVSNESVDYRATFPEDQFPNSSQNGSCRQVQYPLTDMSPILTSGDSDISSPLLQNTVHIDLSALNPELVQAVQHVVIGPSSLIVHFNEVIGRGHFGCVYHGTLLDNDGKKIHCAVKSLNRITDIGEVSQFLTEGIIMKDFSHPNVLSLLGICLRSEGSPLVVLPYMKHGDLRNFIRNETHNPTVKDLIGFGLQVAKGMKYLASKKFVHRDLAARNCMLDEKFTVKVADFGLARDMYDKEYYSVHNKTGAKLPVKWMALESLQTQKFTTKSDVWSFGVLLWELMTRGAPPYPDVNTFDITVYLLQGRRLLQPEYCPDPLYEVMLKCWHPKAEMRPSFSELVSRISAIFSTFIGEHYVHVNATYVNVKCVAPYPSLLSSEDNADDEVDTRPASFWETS

SMILES | IC50 [nM]
Cn1cc(-c2ccc3ncc([C@H](O)c4ccc5ncccc5c4)n3n2)cn1 [Example 151, (R)-[6-(1-Methyl-1H-pyrazol-4-yl)-imidazo[1,2-b]pyridazin-3-yl]-quinolin-6-yl-methanol] | 64
c1cn2cc(Cc3cnc4ccc(-c5cn[nH]c5)nn34)ccc2n1 [Example 290, 3-Imidazo[1,2-a]pyridin-6-ylmethyl-6-(1H-pyrazol-4-yl)-imidazo[1,2-b]pyridazine] | 120
Cn1cc(-c2ccc3ncc(C(C)(O)c4cc5cccnc5cc4F)n3n2)cn1 (racemic) [Example 174, (rac)-1-(7-Fluoro-quinolin-6-yl)-1-[6-(1-methyl-1H-pyrazol-4-yl)-imidazo[1,2-b]pyridazin-3-yl]-ethanol] | 120
Cc1cccc(-c2ccc3ncc(C(C)c4ccc5nccn5c4)n3n2)c1 (racemic) [Example 308, (rac)-3-(1-Imidazo[1,2-a]pyridin-6-yl-ethyl)-6-m-tolyl-imidazo[1,2-b]pyridazine] | 82
c1ccc(CNc2ccc3ncc(Cc4ccc5ncccc5c4)n3n2)cc1 [Example 82, Benzyl-(3-quinolin-6-ylmethyl-imidazo[1,2-b]pyridazin-6-yl)-amine] | 220
C[C@@H](c1c(F)cc2ncccc2c1F)c1cnc2ccc(-c3cnn(C)c3)nn12 [Example 192, 5,7-Difluoro-6-{(S)-1-[6-(1-methyl-1H-pyrazol-4-yl)-imidazo[1,2-b]pyridazin-3-yl]-ethyl}-quinoline] | < 3
c1cncc(-c2ccc3ncc(Cc4ccc5ncccc5c4)n3n2)c1 [Example 29, 6-(6-Pyridin-3-yl-imidazo[1,2-b]pyridazin-3-ylmethyl)-quinoline] | 40
Clc1ccc(-c2ccc3ncc(Cc4ccc5ncccc5c4)n3n2)cc1 [Example 27, 6-[6-(4-Chloro-phenyl)-imidazo[1,2-b]pyridazin-3-ylmethyl]-quinoline] | 110
Cc1ccc(-c2ccc3ncc(Cc4ccc5ncccc5c4)n3n2)cc1 [Example 16, 6-(6-p-Tolyl-imidazo[1,2-b]pyridazin-3-ylmethyl)-quinoline] | 94.5
CCOc1ccc2ncc(Cc3ccc4ncccc4c3)n2n1 [Example 123, 6-(6-ethoxy-imidazo[1,2-b]pyridazin-3-ylmethyl)-quinoline] | 87
Cn1cc(-c2ccc3ncc(Cc4ccc5occc5c4)n3n2)cn1 [Example 8, 3-Benzofuran-5-ylmethyl-6-(1-methyl-1H-pyrazol-4-yl)-imidazo[1,2-b]pyridazine] | 270
FC(F)(c1ccc2ncccc2c1)c1cnc2ccc(-c3cnn(C4CCNCC4)c3)nn12 [Example 197, 6-{Difluoro-[6-(1-piperidin-4-yl-1H-pyrazol-4-yl)-imidazo[1,2-b]pyridazin-3-yl]-methyl}-quinoline] | 61
CC(c1ccc2ncccc2c1Cl)c1cnc2ccc(-c3cnn(C)c3)nn12 (racemic) [Example 225, (rac)-5-Chloro-6-{1-[6-(1-methyl-1H-pyrazol-4-yl)-imidazo[1,2-b]pyridazin-3-yl]-ethyl}-quinoline] | 25
c1cnc2ccc(Cc3cnc4ccc(NC5CCCC5)nn34)cc2c1 [Example 81, Cyclopentyl-(3-quinolin-6-ylmethyl-imidazo[1,2-b]pyridazin-6-yl)-amine] | 76
Nc1cccc(-c2ccc3ncc(Cc4ccc5ncccc5c4)n3n2)c1 [Example 20, 3-(3-Quinolin-6-ylmethyl-imidazo[1,2-b]pyridazin-6-yl)-phenylamine] | 60
c1cnc2ccc(Cc3cnc4ccc(NC5CCCCCCC5)nn34)cc2c1 [Example 97, Cyclooctyl-(3-quinolin-6-ylmethyl-imidazo[1,2-b]pyridazin-6-yl)-amine] | 610
CN1CC(n2cc(-c3ccc4ncc(Cc5cc6cccnc6cc5F)n4n3)cn2)C1 [Example 146, 7-Fluoro-6-{6-[1-(1-methyl-azetidin-3-yl)-1H-pyrazol-4-yl]-imidazo[1,2-b]pyridazin-3-ylmethyl}-quinoline] | 68
c1cnc2ccc(Cc3cnc4ccc(-c5ccc6c(c5)OCO6)nn34)cc2c1 [Example 51, 6-(6-Benzo[1,3]dioxol-5-yl-imidazo[1,2-b]pyridazin-3-ylmethyl)-quinoline] | 95
OCCn1cc(-c2ccc3ncc(Cc4c(F)cc5ncccc5c4F)n3n2)cn1 [Example 171, 2-{4-[3-(5,7-Difluoro-quinolin-6-ylmethyl)-imidazo[1,2-b]pyridazin-6-yl]-pyrazol-1-yl}-ethanol] | < 3
Oc1ccc(-c2ccc3ncc(Cc4ccc5ncccc5c4)n3n2)cn1 [Example 73, 5-(3-Quinolin-6-ylmethyl-imidazo[1,2-b]pyridazin-6-yl)-pyridin-2-ol] | 48
c1cnc2ccc(Cc3cnc4ccc(-n5cccn5)nn34)cc2c1 [Example 134, 6-(6-Pyrazol-1-yl-imidazo[1,2-b]pyridazin-3-ylmethyl)-quinoline] | 570

SMILES | IC50 [nM]
NC(=O)c1ccc(-c2ccc3ncc(Cc4ccc5ncccc5c4)n3n2)cc1Cl [Example 15, 2-Chloro-4-(3-quinolin-6-ylmethyl-imidazo[1,2-b]pyridazin-6-yl)-benzamide] | 9.5
c1cncc(Nc2ccc3ncc(Cc4ccc5ncccc5c4)n3n2)c1 [Example 129, Pyridin-3-yl-(3-quinolin-6-ylmethyl-imidazo[1,2-b]pyridazin-6-yl)-amine] | 69
Brc1ccc(-c2ccc3ncc(Cc4ccc5ncccc5c4)n3n2)cc1 [Example 19, 6-[6-(4-Bromo-phenyl)-imidazo[1,2-b]pyridazin-3-ylmethyl]-quinoline] | 215
CC(c1c(F)cc2ncccc2c1F)c1cnc2ccc(-c3cnn(C)c3)nn12 (racemic) [Example 191, (rac)-5,7-Difluoro-6-{1-[6-(1-methyl-1H-pyrazol-4-yl)-imidazo[1,2-b]pyridazin-3-yl]-ethyl}-quinoline] | < 3
O[C@@H]1CCN(c2ccc3ncc(Cc4ccc5ncccc5c4)n3n2)C1 [Example 108, (R)-1-(3-Quinolin-6-ylmethyl-imidazo[1,2-b]pyridazin-6-yl)-pyrrolidin-3-ol] | 9.8
c1cnc2ccc(Cc3cnc4ccc(-c5cnn(CCN6CCC6)c5)nn34)cc2c1 [Example 235, 6-{6-[1-(2-Azetidin-1-yl-ethyl)-1H-pyrazol-4-yl]-imidazo[1,2-b]pyridazin-3-ylmethyl}-quinoline] | 220
COc1ccc2cc(-c3ccc4ncc(Cc5ccc6ncccc6c5)n4n3)ccc2c1 [Example 40, 6-[6-(6-Methoxy-naphthalen-2-yl)-imidazo[1,2-b]pyridazin-3-ylmethyl]-quinoline] | 130
Clc1cccc(Oc2ccc3ncc(Cc4ccc5ncccc5c4)n3n2)c1 [Example 113, 6-[6-(3-Chloro-phenoxy)-imidazo[1,2-b]pyridazin-3-ylmethyl]-quinoline] | 84
Cn1cc(-c2ccc3ncc(C(F)(F)c4ccc5ncccc5c4)n3n2)cn1 [Example 6, 6-{Difluoro-[6-(1-methyl-1H-pyrazol-4-yl)-imidazo[1,2-b]pyridazin-3-yl]-methyl}-quinoline] | 14
O=C1CCN(c2ccc3ncc(Cc4ccc5ncccc5c4)n3n2)CC1 [Example 120, 1-(3-Quinolin-6-ylmethyl-imidazo[1,2-b]pyridazin-6-yl)-piperidin-4-one] | 69
COCCn1cc(-c2ccc3ncc(Cc4cc5cccnc5cc4F)n3n2)cn1 [Example 234, 7-Fluoro-6-{6-[1-(2-methoxy-ethyl)-1H-pyrazol-4-yl]-imidazo[1,2-b]pyridazin-3-ylmethyl}-quinoline] | 110
Cn1cc(-c2ccc3ncc([C@@H](O)c4ccc5ncccc5c4)n3n2)cn1 [Example 152, (S)-[6-(1-Methyl-1H-pyrazol-4-yl)-imidazo[1,2-b]pyridazin-3-yl]-quinolin-6-yl-methanol] | 890
Cn1cc(-c2ccc3ncc(Cc4ccc5ncccc5c4F)n3n2)cn1 [Example 160, 5-Fluoro-6-[6-(1-methyl-1H-pyrazol-4-yl)-imidazo[1,2-b]pyridazin-3-ylmethyl]-quinoline] | 12
CN(C)CCCNc1ccc2ncc(Cc3ccc4ncccc4c3)n2n1 [Example 101, N,N-Dimethyl-N′-(3-quinolin-6-ylmethyl-imidazo[1,2-b]pyridazin-6-yl)-propane-1,3-diamine] | 130
OCCn1cc(-c2ccc3ncc(Cc4ccc5nccn5c4)n3n2)cn1 [Example 215, 2-[4-(3-Imidazo[1,2-a]pyridin-6-ylmethyl-imidazo[1,2-b]pyridazin-6-yl)-pyrazol-1-yl]-ethanol] | 130
Cn1cc(-c2ccc3ncc(C(O)c4ccc5ncccc5c4)n3n2)cn1 (racemic) [Example 1, (rac)-[6-(1-Methyl-1H-pyrazol-4-yl)-imidazo[1,2-b]pyridazin-3-yl]-quinolin-6-yl-methanol] | 140
Cn1cc(-c2ccc3ncc(Cc4ccc5ncn(C)c5c4)n3n2)cn1 [Example 200, 3-(3-Methyl-3H-benzoimidazol-5-ylmethyl)-6-(1-methyl-1H-pyrazol-4-yl)-imidazo[1,2-b]pyridazine] | 23
Clc1cc(-c2ccc3ncc(Cc4ccc5ncccc5c4)n3n2)ccn1 [Example 49, 6-[6-(2-Chloro-pyridin-4-yl)-imidazo[1,2-b]pyridazin-3-ylmethyl]-quinoline] | 23
Clc1c(Cc2cnc3ccc(-c4cnn(C5CCNCC5)c4)nn23)ccc2ncccc12 [Example 227, 5-Chloro-6-[6-(1-piperidin-4-yl-1H-pyrazol-4-yl)-imidazo[1,2-b]pyridazin-3-ylmethyl]-quinoline] | 78
CN(c1cccc(Cl)c1)c1ccc2ncc(Cc3ccc4ncccc4c3)n2n1 [Example 138, (3-Chloro-phenyl)-methyl-(3-quinolin-6-ylmethyl-imidazo[1,2-b]pyridazin-6-yl)-amine] | 960
